The results in this text go back to patent publication US20250115598A1 (Anaxis Pharma Pty Ltd, priority 2021, published 2025).

Some results are limits rather than exact numbers.

The target in one assay is endogenous MLKL in U937 (Homo sapiens (Human), UniProt Q8NB16). Put plainly: Degradation assay: endogenous MLKL in U937 (western blot). Conditions: U937, 24 h incubation, read-out: Degradation of endogenous MLKL in U937 (DC50 cell-based assay). The gist of the method: (§1)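 MDF (seeded the day before) or U937 cells were treated 24 h at 37 °C, 10% CO2 with compound at 10, 2, 0.4, 0.08 and 0.016 μM final. Endogenous MLKL was quantified by western blot (anti-MLKL 3H1), normalized to GAPDH. Percent degradation was taken relative to DMSO control.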
On the technique in general: A western blot detects proteins with antibodies after separation by electrophoresis.

The next assay addresses human MLKL (full length) (Homo sapiens (Human), UniProt Q8NB16). Description: KINOMEscan binding assay, human MLKL (full length). The note with it: hMLKL, Table 25; read-out: MLKL (KD). The essentials: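 Binding constants were derived by fitting qPCR-quantified bead-retained kinase against compound concentration to the Hill equation, slope set at −1. Compound series were 3-fold over 11 points with 1% DMSO; most top concentrations were 30,000 nM. Kinases were T7-phage-tagged or HEK-293-produced with DNA tags.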

The test system of another assay is U937 cells. Put plainly: Counter screen: cell viability without the TSQ cocktail (off-target effect). Conditions: Homo sapiens, U-937, Table 26, read-out: Off-target effect (IC50 cell-based assay). Details: species or system human. The gist of the method:
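U937 cells (20000/well, HT-RPMI + 7.4% FBS) treated with compound (10-point 1:3 dilution from 36 μM, 0.3% DMSO) without the TSQ cocktail for 48 h at 37 °C/5% CO2. Viability read as ATP by CellTiter-Glo luminescence, flagging off-target cytotoxicity.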

The subject of assay [1] is U937 human histiocytic leukemia cell line. Put plainly: Cellular assay: inhibition of TSQ induced necroptosis, CellTitre-Glo viability. Conditions: Homo sapiens, U-937; U937 cells, 48 hours, TSQ cocktail, Table 26; read-out: Inhibition of TSQ-induced necroptosis (IC50 cell-based assay). As to the method:
Cellular Assay: Screening Compounds for Inhibition of TSQ Induced Necroptosis, 384 Well Plate Format.
• Cell Line ID: U937 human histiocytic leukemia cell line. • Cell Concentration (cells/well): Final cell density is 20000 cells per well. • Cell growth medium: HT-RPMI medium+7.4% Fetal Bovine Serum (FBS). Cells are cultured in Corning 150 cm^2 tissue culture flasks with vented caps at 37° C./5% CO2. • Incubation: Plates were incubated at 37° C./5% CO2 in a humidified incubator for 48 hours following addition of compounds and death stimuli (TSQ cocktail). • Compound concentration: 36 μM starting concentration, 1:3 dilution, 10 point • DMSO final concentration (% v/v): 0.3%. Compounds in TSQ Cocktail (T: TNF; S: Smac Mimetic; Q: Q-VD-OPh) and their Final Concentrations: • hTNF-Fc (100 ng/ml)—produced by standard procedures as shown in Bossen et al., J. Biol. Chem., 2006, 281(20), 13964-13971. • Compound A (500 nM)—Smac mimetic, Tetralogic and SYNthesis med chem • Q-VD-OPh (10 μM)—MP Biomedicals
The cellular assay was carried out according to the following steps: • 1. Each well was prepared by sequential addition of: • a. DMSO (control; columns 1-2 and 23-24) or compound in DMSO—addition was performed using acoustic transfer of nL volumes of stock compound to give final test concentrations of 36, 12, 4, 1.3, 0.44, 0.148, 0.049, 0.016, 0.005 and 0.002 μM. All wells were backfilled with DMSO to a final total volume in the well of 100 nL. • b. Following compound/DMSO addition in step (a), 40 μL of cell suspension (5×10^5 cells/mL) was added to provide a final cell concentration of 20,000 cells per well, and • c. Following cell addition in step (b), 10 μL of 5×TSQ cocktail (except to positive controls; columns 1 and 23) was added to each well. • 2. After 48 hours, plate was removed from the 37° C. incubator and equilibrated to room temperature for 45 minutes. • 3.15 μL of room temperature CellTitre-Glo2™ (Promega™) was added to each well. • 4. Shook plates for 2 minutes (˜600 rpm) and incubated at room temperature for 15 minutes to allow signal to stabilise. • 5. Read luminescence readout on a plate reader.
Percent viability was calculated for each compound according to equation (2):
• Assay involving the TSQ cocktail (T: TNF; S: Smac mimetic; Q: Q-VD-OPh): TSQ treatment ensures that cells specifically undergo necroptotic cell death. TNF activates the TNF receptor, Smac mimetic directs the signal away from proinflammatory signaling and toward the RIPK1/RIPK3-mediated cell death pathways, and Q-VD-OPh ensures that the apoptotic response is blocked leaving only the programmed necrosis response. The compounds' activity (solution in DMSO) tested in this TSQ-induced assay was evaluated by determining the number of viable cells in culture by measuring the amount of ATP present as measured by CelltiterGlo. • Counter screen: In parallel, all compounds were tested for their ability to affect cell viability. The same U937 cells were treated with compound in DMSO without the TSQ cocktail. This counter screen enabled evaluation of off-target effects. In this case, cell viability was measured by CelltiterGlo.

For another assay, the target named is endogenous MLKL in MDF (Mus musculus (Mouse), UniProt Q9D2Y4). Description: Degradation assay: endogenous MLKL in MDF (western blot). The note with it: MDF cells, 24 h incubation with compound, MLKL adjusted for loading with GAPDH, normalized to DMSO only control, read-out: Degradation of endogenous MLKL in MDF (DC50 cell-based assay). The gist of the method: as §1
Chain of endogenous MLKL in MDF (Q9D2Y4 whole entry): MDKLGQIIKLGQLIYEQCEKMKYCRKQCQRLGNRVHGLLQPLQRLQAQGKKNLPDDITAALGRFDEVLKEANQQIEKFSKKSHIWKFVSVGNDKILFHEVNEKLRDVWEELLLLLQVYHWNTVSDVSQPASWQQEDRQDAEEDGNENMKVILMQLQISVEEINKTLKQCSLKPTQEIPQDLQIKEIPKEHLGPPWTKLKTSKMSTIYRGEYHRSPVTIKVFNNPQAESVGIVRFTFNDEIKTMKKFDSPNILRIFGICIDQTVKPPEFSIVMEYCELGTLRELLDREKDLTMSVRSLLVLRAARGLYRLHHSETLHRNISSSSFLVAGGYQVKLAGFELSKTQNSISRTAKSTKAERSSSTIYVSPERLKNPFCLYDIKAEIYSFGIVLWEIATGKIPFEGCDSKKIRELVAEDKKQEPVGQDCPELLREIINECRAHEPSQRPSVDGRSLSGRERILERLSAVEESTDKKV

Chain of human MLKL (full length) (Q8NB16 whole entry): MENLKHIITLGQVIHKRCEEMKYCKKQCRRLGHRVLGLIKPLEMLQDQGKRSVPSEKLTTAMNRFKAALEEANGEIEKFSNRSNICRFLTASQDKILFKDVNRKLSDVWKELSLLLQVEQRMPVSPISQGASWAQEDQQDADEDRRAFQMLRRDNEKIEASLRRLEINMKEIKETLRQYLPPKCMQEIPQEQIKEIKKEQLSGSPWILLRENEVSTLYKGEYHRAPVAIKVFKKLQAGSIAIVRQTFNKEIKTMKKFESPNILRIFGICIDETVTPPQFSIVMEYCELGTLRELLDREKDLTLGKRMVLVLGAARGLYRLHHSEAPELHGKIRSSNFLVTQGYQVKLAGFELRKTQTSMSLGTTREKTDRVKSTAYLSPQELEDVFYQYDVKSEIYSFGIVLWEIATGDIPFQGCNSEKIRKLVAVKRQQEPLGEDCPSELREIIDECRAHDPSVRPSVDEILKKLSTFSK
Chain of endogenous MLKL in U937 (Q8NB16 whole entry): as above

Regarding `CCS(=O)(=O)Nc1ccc(-c2n[nH]c3c(-c4cnn(CCCCCCC(=O)N[C@H](C(=O)N5C[C@H](O)C[C@H]5C(=O)NCc5ccc(-c6scnc6C)cc5)C(C)(C)C)c4)cnc(N)c23)cc1OCc1ccc(F)cc1` [Compound 1003, (2S,4R)-1-[(2S)-2-{7-[4-(4-amino-3-{4-ethanesulfonamido-3-[(4-fluorophenyl)methoxy]phenyl}-1H-pyrazolo[4,3-c]pyridin-7-yl)-1H-pyrazol-1-yl]heptanamido}-3,3-dimethylbutanoyl]-4-hydroxy-N-{[4-(4-methyl-1,3-thiazol-5-yl)phenyl]methyl}pyrrolidine-2-carboxamide], at endogenous MLKL in U937, the DC50 fell in the range of 1 to 10 µM. Moreover, the Kd on human MLKL (full length) was below 0.01 µM. Moreover, the IC50 (in the assay with U937 cells; in assay [1]) was above 10 µM each time.

Take `CCS(=O)(=O)Nc1ccc(-c2n[nH]c3c(-c4cnn(CCOCCOCC(=O)N[C@H](C(=O)N5C[C@H](O)C[C@H]5C(=O)NCc5ccc(-c6scnc6C)cc5)C(C)(C)C)c4)cnc(N)c23)cc1OCc1ccc(F)cc1` [Compound 1005, (2S,4R)-1-[(2S)-2-[2-(2-{2-[4-(4-amino-3-{4-ethanesulfonamido-3-[(4-fluorophenyl)methoxy]phenyl}-1H-pyrazolo[4,3-c]pyridin-7-yl)-1H-pyrazol-1-yl]ethoxy}ethoxy)acetamido]-3,3-dimethylbutanoyl]-4-hydroxy-N-{[4-(4-methyl-1,3-thiazol-5-yl)phenyl]methyl}pyrrolidine-2-carboxamide]: the DC50 on endogenous MLKL in U937 fell in the range of 1 to 10 µM. Moreover, at human MLKL (full length), the dissociation constant (Kd) was below 0.01 µM. In addition, the IC50 with U937 cells is above 10 µM; in assay [1] it was 1 to 10 µM.

Consider `Cc1ncsc1-c1ccc(CNC(=O)[C@@H]2C[C@@H](O)CN2C(=O)[C@@H](NC(=O)COCCOCCOCCn2cc(-c3cnc(N)c4c(-c5ccc(NS(=O)(=O)C(F)F)c(O[C@@H](C)c6ccc(F)cc6)c5)nn(C)c34)cn2)C(C)(C)C)cc1` [Compound 1009, (2S,4R)-1-[(2S)-2-[2-(2-{2-[2-(4-{4-amino-3-[4-(difluoromethanesulfonamido)-3-[(1S)-1-(4-fluorophenyl)ethoxy]phenyl]-1-methyl-1H-pyrazolo[4,3-c]pyridin-7-yl}-1H-pyrazol-1-yl)ethoxy]ethoxy}ethoxy)acetamido]-3,3-dimethylbutanoyl]-4-hydroxy-N-{[4-(4-methyl-1,3-thiazol-5-yl)phenyl]methyl}pyrrolidine-2-carboxamide], for which the DC50 on endogenous MLKL in U937 was 1 to 10 µM. Further, the Kd on human MLKL (full length) is below 0.01 µM. Moreover, the IC50 with U937 cells was 1 to 10 µM; in assay [1], below 1 µM.

Consider `Cc1ncsc1-c1ccc(CNC(=O)[C@@H]2C[C@@H](O)CN2C(=O)[C@@H](NC(=O)CCN2CC(n3cc(-c4cnc(N)c5c(-c6ccc(NS(=O)(=O)C(F)F)c(O[C@@H](C)c7ccc(F)cc7)c6)nn(C)c45)cn3)C2)C(C)(C)C)cc1` [Compound 1010, (2S,4R)-1-[(2S)-2-{3-[3-(4-{4-amino-3-[4-(difluoromethanesulfonamido)-3-[(1S)-1-(4-fluorophenyl)ethoxy]phenyl]-1-methyl-1H-pyrazolo[4,3-c]pyridin-7-yl}-1H-pyrazol-1-yl)azetidin-1-yl]propanamido}-3,3-dimethylbutanoyl]-4-hydroxy-N-{[4-(4-methyl-1,3-thiazol-5-yl)phenyl]methyl}pyrrolidine-2-carboxamide], for which the DC50 on endogenous MLKL in U937 was in the range of 1 to 10 µM. The Kd on human MLKL (full length) was below 0.01 µM. Besides, the IC50 with U937 cells was above 10 µM; in assay [1] it was 1 to 10 µM.

`Cc1ncsc1-c1ccc(CNC(=O)[C@@H]2C[C@@H](O)CN2C(=O)[C@@H](NC(=O)CCN2CCC(n3cc(-c4cnc(N)c5c(-c6ccc(NS(=O)(=O)C(F)F)c(O[C@@H](C)c7ccc(F)cc7)c6)nn(C)c45)cn3)C2)C(C)(C)C)cc1` (stereo partly drawn) [Compound 1012, (2S,4R)-1-[(2S)-2-{3-[3-(4-{4-amino-3-[4-(difluoromethanesulfonamido)-3-[(1S)-1-(4-fluorophenyl)ethoxy]phenyl]-1-methyl-1H-pyrazolo[4,3-c]pyridin-7-yl}-1H-pyrazol-1-yl)pyrrolidin-1-yl]propanamido}-3,3-dimethylbutanoyl]-4-hydroxy-N-{[4-(4-methyl-1,3-thiazol-5-yl)phenyl]methyl}pyrrolidine-2-carboxamide]: the DC50 on endogenous MLKL in U937 is 1 to 10 µM. The Kd on human MLKL (full length) was below 0.01 µM. In addition, the values for the IC50 (with U937 cells; in assay [1]) were above 10 µM and 1 to 10 µM, respectively.

On to `Cc1ncsc1-c1ccc(CNC(=O)[C@@H]2C[C@@H](O)CN2C(=O)[C@@H](NC(=O)CCN2CCC(n3cc(-c4cnc(N)c5c(-c6ccc(NS(=O)(=O)C(F)F)c(O[C@@H](C)c7ccc(F)cc7)c6)nn(C)c45)cn3)CC2)C(C)(C)C)cc1` [Compound 1017, (2S,4R)-1-[(2S)-2-{3-[4-(4-{4-amino-3-[4-(difluoromethanesulfonamido)-3-[(1S)-1-(4-fluorophenyl)ethoxy]phenyl]-1-methyl-1H-pyrazolo[4,3-c]pyridin-7-yl}-1H-pyrazol-1-yl)piperidin-1-yl]propanamido}-3,3-dimethylbutanoyl]-4-hydroxy-N-{[4-(4-methyl-1,3-thiazol-5-yl)phenyl]methyl}pyrrolidine-2-carboxamide], for which, at endogenous MLKL in U937, the DC50 was in the range of 1 to 10 µM. Moreover, at human MLKL (full length), the Kd was below 0.01 µM. Also, the IC50 was above 10 µM in the assay on U937 cells and 1 to 10 µM in assay [1].

Take `Cc1ncsc1-c1ccc(CNC(=O)[C@@H]2C[C@@H](O)CN2C(=O)[C@@H](NC(=O)CCCCCCn2cc(-c3cnc(N)c4c(-c5ccc(NS(=O)(=O)C(F)F)cc5)nn(C)c34)cn2)C(C)(C)C)cc1` [Compound 1022, (2S,4R)-1-[(2S)-2-[7-(4-{4-amino-3-[4-(difluoromethanesulfonamido)phenyl]-1-methyl-1H-pyrazolo[4,3-c]pyridin-7-yl}-1H-pyrazol-1-yl)heptanamido]-3,3-dimethylbutanoyl]-4-hydroxy-N-{[4-(4-methyl-1,3-thiazol-5-yl)phenyl]methyl}pyrrolidine-2-carboxamide]: the 50% degradation concentration (DC50) at endogenous MLKL in U937 and at endogenous MLKL in MDF was below 1 µM in each case. Also, the Kd at human MLKL (full length) was below 0.01 µM. The IC50 in the assay on U937 cells was above 10 µM; in assay [1], below 1 µM.

One may read the DC50 as the midpoint of the concentration-degradation curve. The Kd is a measure of binding affinity in units of concentration. Broadly, the IC50 is the midpoint of a concentration-inhibition curve.
